The values that follow come from patent US6303789A, “Benzamides with tetrahydrofuranyloxy substitutents as phosphodiesterase 4 inhibitors” (Byk Gulden Lomberg Chemische Fabrik GmbH, priority 1998, dated 2001).

Structures are written as SMILES.

For this test, the system named is PDE4. The experiment in a line: Inhibition of PDE4 activity (method of Bauer and Schwabe, adapted to microtiter plates). The test is classed as biochemical. To be noted: inhibitory concentration as -log IC50 (mol/l).
As for `COc1ccc(C(=O)Nc2c(Cl)cncc2Cl)cc1OC1COCC1O` (stereo not shown) [Compound 6, N-(3,5-Dichloropyridin-4-yl)-3-(4-hydroxytetrahydrofuran-3-yloxy)-4-methoxybenzamide], the “Inhibition of the PDE4 activity, -log IC50” value (“Inhibition … -log IC50” below) is 8.02.
For the compound `COc1ccc(C(=O)Nc2c(Cl)cncc2Cl)cc1OC1COCC1OCc1ccccc1` (stereo not shown) [Compound 3, N-(3,5-Dichloropyridin-4-yl)-3-(4-benzyloxytetrahydrofuran-3-yloxy)-4-methoxybenzamide], the “Inhibition … -log IC50” value amounted to 8.70.
As for `COc1ccc(C(=O)Nc2c(Cl)cncc2Cl)c2c1OC1(COCC1OC)C2` (stereo not shown) [Compound 4, N-(3,5-Dichloropyridin-4-yl)-2,3-dihydro-4',7-dimethoxybenzofuran-2-spiro-3'-tetrahydro-furan-4-carboxamide], the “Inhibition … -log IC50” value stood at 8.11.
`COc1ccc(C(=O)Nc2c(Cl)cncc2Cl)c2c1OC1(COCC1OCc1ccccc1)C2` (stereo not shown) [Compound 5, N-(3,5-Dichloropyridin-4-yl)-2,3-dihydro-4'-benzyloxy-7-methoxybenzofuran-2-spiro-3'-tetrahydrofuran-4-carboxamide]: the “Inhibition … -log IC50” value amounted to 8.58.
Regarding `COc1ccc(C(=O)Nc2c(Cl)cncc2Cl)cc1OC1COCC1OC` (stereo not shown) [Compound 1, N-(3,5-Dichloropyridin-4-yl)-4-methoxy-3-(4-methoxytetrahydrofuran-3-yloxy)benzamide], the “Inhibition … -log IC50” value is on record as 8.24.
For the compound `COc1ccc(C(=O)Nc2c(Cl)cncc2Cl)cc1OC1COCC1OCSC` (stereo not shown) [Compound 7, N-(3,5-Dichloropyridin-4-yl)-4-methoxy-3-(4-methylthiomethyloxytetrahydrofuran-3-yloxy)-benzamide], the “Inhibition … -log IC50” value came out at 8.54.
The same measure for `CCOC1COCC1Oc1cc(C(=O)Nc2c(Cl)cncc2Cl)ccc1OC` (stereo not shown) [Compound 2, N-(3,5-Dichloropyridin-4-yl)-3-(4-ethoxytetrahydrofuran-3-yloxy)-4-methoxybenzamide]: 8.25.
